Tests used:
[1] = molecular target: T1, indoleamine 2,3-dioxygenase (IDO) (Homo sapiens, UniProt P14902); assay: HeLa cell-based indoleamine 2,3-dioxygenase (IDO) assay (IDO1 HeLa); conditions: HeLa cells, IFNγ 25 ng/mL, 48 hour incubation; kynurenine by absorbance at 480 nm
T1 construct: replaced with media containing IFNγ (#285-IF/CF, R&D Systems) at a final concentration of 25 ng/mL; endogenous in cells; host or cells: HeLa (ATCC CCL-2), IFNγ-stimulated
Protocol: Assessment of inhibitor activity in HeLa cell-based indoleamine 2,3-dioxygenase (IDO) assay:
HeLa (ATCC® CCL-2) cells were obtained from the ATCC® and cultured in Dulbecco's Modified Eagle Medium supplemented with 4.5 g/L glucose, […] (#10-013-CV, Corning), 2 mM L-alanyl-L-glutamine dipeptide (#35050-061, Gibco), 100U/mL penicillin, 100 μg/mL streptomycin (#SV30010, HyClone) and 10% fetal bovine serum (#SH30071.03 HyClone). Cells were maintained in a humidified incubator at 37° C. in 5% CO2.
IDO activity was assessed as a function of kynurenine production as follows: HeLa cells were seeded in a 96-well culture plate at a density of 5,000 cells/well and allowed to equilibrate overnight. After 24 hours, the media was aspirated and replaced with media containing IFNγ (#285-IF/CF, R&D Systems) at a final concentration of 25 ng/mL. A serial dilution of each test compound was added to the cells in a total volume of 200 μL of culture medium. After a further 48 hour incubation, 170 μL of supernatant was transferred from each well to a fresh 96-well plate. 12.1 μL of 6.1N trichloroacetic acid (#T0699, Sigma-Aldrich) was added to each well and mixed, followed by incubation at 65° C. for 20 minutes to hydrolyze N-formylkynurenine, the product of indoleamine 2,3-dioxygenase, to kynurenine. The reaction mixture was then centrifuged for 10 mins at 500×g to sediment the precipitate. 100 μL of the supernatant was transferred from each well to a fresh 96-well plate. 100 μl of 2% (w/v) p-dimethylaminobenzaldehyde (#15647-7, Sigma-Aldrich) in acetic acid (#A6283, Sigma-Aldrich) was added to each well mixed and incubated at RT for 20 mins. Kynurenine concentrations were determined by measuring absorbance at 480 nm and calibrating against an L-kynurenine (#K8625, Sigma-Aldrich) standard curve using a SPECTRAMAX® M2e microplate reader (Molecular Devices). The percentage activity at each inhibitor concentration was determined and IC50 values assessed using nonlinear regression.

[2] = molecular target: T2, human IDO1 (Homo sapiens, UniProt P14902); assay: IDO inhibition assay in human IDO1/HEK293 cells (IDO1 HEK Human); assay type: cell-based; conditions: HEK293 cells stably expressing human IDO1; 20 hours incubation; absorbance at 490 nm after Ehrlich reagent
T2 construct: expressed in transfected cells
Outline: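 HEK293 clones stably expressing human IDO1 (10,000 cells/well, phenol red-free RPMI, 10% FBS) were treated with compound for 20 hours at 37° C. After 0.2% TCA and 30 min at 50° C., kynurenine was read with Ehrlich reagent at 490 nm. IC50 was normalised to DMSO (0%) and 500 nM reference standard (100%).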

T2 sequence (P14902 whole entry): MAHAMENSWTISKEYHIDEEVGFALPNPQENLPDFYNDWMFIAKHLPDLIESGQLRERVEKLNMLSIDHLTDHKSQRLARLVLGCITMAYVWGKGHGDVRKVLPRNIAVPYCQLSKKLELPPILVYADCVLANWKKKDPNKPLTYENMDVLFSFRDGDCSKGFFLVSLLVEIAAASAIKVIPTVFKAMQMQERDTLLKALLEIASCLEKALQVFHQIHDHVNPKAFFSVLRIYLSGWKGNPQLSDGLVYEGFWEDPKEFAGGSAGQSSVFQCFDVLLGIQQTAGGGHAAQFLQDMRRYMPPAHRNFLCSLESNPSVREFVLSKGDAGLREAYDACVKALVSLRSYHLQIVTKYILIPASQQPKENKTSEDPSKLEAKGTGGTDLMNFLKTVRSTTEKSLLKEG
T1 sequence (P14902 whole entry): as above

| IC50 [1] | IC50 [2] | Compound |
| --- | --- | --- |
| 7.2 nM | – | CC1=CC(c2ccccc2)c2cc(-c3ccccc3-c3nnn[nH]3)cc(NC(=O)Nc3ccc(C)cc3)c2OC1 (racemic) [Example 92, (+/−)-1-(7-(2-(1H-tetrazol-5-yl)phenyl)-3-methyl-5-phenyl-2,5-dihydrobenzo[b]oxepin-9-yl)-3-(p-tolyl)urea] |
| 14.9 nM | 10.4 nM | Cc1ccc(NC(=O)Nc2cc(-c3ccccc3-c3nnn[nH]3)cc3c2OCCCC3C2CC2)cc1 (single isomer, unassigned) [36 (En. 1), 1-(7-(2-(1H-tetrazol-5-yl)phenyl)-5-cyclopropyl-2,3,4,5-tetrahydrobenzo[b]oxepin-9-yl)-3-(p-tolyl)urea] |
| 14.5 nM | – | CCc1ccc(NC(=O)Nc2cc(-c3ccccc3-c3nnn[nH]3)cc3c2OCC=CC3CCC(F)(F)F)cc1 (racemic) [Example 107, (+/−)-1-(7-(2-(1H-tetrazol-5-yl)phenyl)-5-(3,3,3-trifluoropropyl)-2,5-dihydrobenzo[b]oxepin-9-yl)-3-(4-ethylphenyl)urea] |
| 30.1 nM | – | O=C(Nc1ccc(Br)cc1)Nc1cc(-c2ccccc2-c2nnn[nH]2)cc2c1OCC=CC2c1ccccc1 (racemic) [Example 106, (+/−)-1-(7-(2-(1H-tetrazol-5-yl)phenyl)-5-phenyl-2,5-dihydrobenzo[b]oxepin-9-yl)-3-(4-bromophenyl)urea] |
| 28.9 nM | 0.98 nM | Cc1ccc(NC(=O)Nc2cc(-c3ccccc3-c3nnn[nH]3)cc3c2OCCCC3C(C)C)cc1 (single isomer, unassigned) [24 (En. 1), 1-(7-(2-(1H-tetrazol-5-yl)phenyl)-5-isopropyl-2,3,4,5-tetrahydrobenzo[b]oxepin-9-yl)-3-(p-tolyl)urea] |
| 24.2 nM | – | Fc1cc(Nc2cc(-c3ccccc3-c3nnn[nH]3)cc3c2OCCCC3c2ccccc2)ccc1Cl (single isomer, unassigned) [Example 72, 7-(2-(1H-tetrazol-5-yl)phenyl)-N-(4-chloro-3-fluorophenyl)-5-phenyl-2,3,4,5-tetrahydrobenzo[b]oxepin-9-amine] |
| 10.9 nM | – | Cc1ccc(NC(=O)Nc2cc(-c3ccccc3-c3nn[nH]n3)cc3c2OCC=CC3c2ccccc2)cc1 (racemic) [Example 87, (+/−)-1-(7-(2-(1H-tetrazol-5-yl)phenyl)-5-phenyl-2,5-dihydrobenzo[b]oxepin-9-yl)-3-(p-tolyl)urea] |
| 54.7 nM | – | O=C(Nc1ccc(Cl)cc1F)Nc1cc(-c2ccccc2-c2nnn[nH]2)cc2c1OCC=CC2c1ccccc1 (racemic) [Example 105, (+/−)-1-(7-(2-(1H-tetrazol-5-yl)phenyl)-5-phenyl-2,5-dihydrobenzo[b]oxepin-9-yl)-3-(4-chloro-2-fluorophenyl)urea] |
| 161 nM | 6.3 nM | Cc1ccc(NC(=O)Nc2cc(-c3ccccc3-c3nnn[nH]3)cc3c2OCCCC3C(C)C)cc1 (single isomer, unassigned) [24 (En. 2), 1-(7-(2-(1H-tetrazol-5-yl)phenyl)-5-isopropyl-2,3,4,5-tetrahydrobenzo[b]oxepin-9-yl)-3-(p-tolyl)urea] |
| 164 nM | – | Cc1ccc(NC(=O)Nc2cc(-c3cc(F)ccc3C(=O)O)cc3c2OCCCC3c2ccccc2)cc1 (racemic) [Example 108, (+/−)-4-fluoro-2-(5-phenyl-9-(3-(p-tolyl)ureido)-2,3,4,5-tetrahydrobenzo[b]oxepin-7-yl)benzoic acid] |
| 13.9 nM | 18.7 nM | Cc1ccc(NC(=O)Nc2cc(-c3ccccc3-c3nn[nH]n3)cc3c2OCCCC3c2ccccc2)cc1 (stereo not shown) [Example 1, 1-(7-(2-(1H-tetrazol-5-yl)phenyl)-5-phenyl-2,3,4,5-tetrahydrobenzo[b]oxepin-9-yl)-3-(p-tolyl)urea] |
| 2.1 nM | 2 nM | COCC(CC(=O)O)c1cc(Nc2ccc(C#N)cc2)c2c(c1)C(C1CC1)CCCO2 (single isomer, unassigned) [131 (dia. 2), 3-(9-(4-Cyanophenylamino)-5-cyclopropyl-2,3,4,5-tetrahydrobenzo[b]oxepin-7-yl)-4-methoxybutanoic acid] |
| 3.6 nM | 2.4 nM | Cc1ccc(NC(=O)Nc2cc(-c3ccccc3-c3nnn[nH]3)cc3c2OCCCC3C2CC2)cc1 (single isomer, unassigned) [36 (En. 2), 1-(7-(2-(1H-tetrazol-5-yl)phenyl)-5-cyclopropyl-2,3,4,5-tetrahydrobenzo[b]oxepin-9-yl)-3-(p-tolyl)urea] |
| 24.7 nM | 50.2 nM | Cc1ccc(NC(=O)Nc2cc(-c3ccccc3-c3nnn[nH]3)cc3c2OCC(F)(F)CC3c2ccccc2)cc1 (racemic) [Example 110, (+/−) 1-(7-(2-(1H-tetrazol-5-yl)phenyl)-3,3-difluoro-5-phenyl-2,3,4,5-tetrahydrobenzo[b]oxepin-9-yl)-3-(p-tolyl)urea] |
| 1 nM | 1.1 nM | Cc1ccc(NC(=O)Nc2cc(-c3ccccc3-c3noc(=O)[nH]3)cc3c2OCCCC3c2ccccc2)cc1 (single isomer, unassigned) [Example 67, 1-(7-(2-(5-oxo-4,5-dihydro-1,2,4-oxadiazol-3-yl)phenyl)-5-phenyl-2,3,4,5-tetrahydrobenzo[b]oxepin-9-yl)-3-(p-tolyl)urea] |
| 5.9 nM | – | Cc1ccc(NC(=O)Nc2cc(-c3ccccc3-c3nnn[nH]3)cc3c2OC[C@@H](C)C[C@H]3c2ccccc2)cc1 (racemic) [Example 109, (+/−)-1-((cis)-7-(2-(1H-tetrazol-5-yl)phenyl)-3-methyl-5-phenyl-2,3,4,5-tetrahydrobenzo[b]oxepin-9-yl)-3-(p-tolyl)urea] |
| – | 9.1 nM | C=C(C)[C@H]1Oc2c(NC(=O)Nc3ccc(C)cc3)cc(-c3ccccc3-c3nnn[nH]3)cc2[C@@H]1c1ccccc1 (racemic) [Example 93, (+/−)-1-((trans)-5-(2-(1H-tetrazol-5-yl)phenyl)-3-phenyl-2-(prop-1-en-2-yl)-2,3-dihydrobenzofuran-7-yl)-3-(p-tolyl)urea] |
| – | 422 nM | c1ccc(C2CCCOc3c(Nc4nc5ccccc5s4)cc(-c4ccccc4-c4nnn[nH]4)cc32)cc1 (single isomer, unassigned) [64 (En. 1), N-(7-(2-(1H-tetrazol-5-yl)phenyl)-5-phenyl-2,3,4,5-tetrahydrobenzo[b]oxepin-9-yl) benzo[d]thiazol-2-amine] |
| – | 12.5 nM | Cc1ccc(CC(=O)Nc2cc(-c3ccccc3-c3nnn[nH]3)cc3c2OCCC(C)C3c2ccccc2)cc1 (single isomer, unassigned) [Example 48, N-(7-(2-(1H-tetrazol-5-yl)phenyl)-4-methyl-5-phenyl-2,3,4,5-tetrahydrobenzo[b]oxepin-9-yl)-2-(p-tolyl)acetamide] |
| – | 77 nM | Cc1ccc(NC(=O)Nc2cc(-c3ccccc3C(=O)O)cc3c2OC(C)(C)C3c2ccccc2)cc1 (racemic) [Example 124, (±)-2-(2,2-Dimethyl-3-phenyl-7-(3-(p-tolyl)ureido)-2,3-dihydrobenzofuran-5-yl) benzoic acid] |
| – | 21.2 nM | Cc1ccc(NC(=O)Nc2cc(-c3ccccc3-c3nnn[nH]3)cc3c2OCCC3c2ccccc2)cc1 (racemic) [Example 132, (+/−)-1-(6-(2-(2H-tetrazol-5-yl)phenyl)-4-phenylchroman-8-yl)-3-(p-tolyl)urea] |
| 5.1 nM | 7.7 nM | Cc1ccc(-c2nnn[nH]2)c(-c2cc(Nc3ccc4nc(C)sc4c3)c3c(c2)C(c2ccccc2)CCCO3)c1 (single isomer, unassigned) [Example 74, 2-methyl-N-(7-(5-methyl-2-(1H-tetrazol-5-yl)phenyl)-5-phenyl-2,3,4,5-tetrahydrobenzo[b]oxepin-9-yl)benzo[d]thiazol-6-amine] |

— patent US12145927B2 (BRISTOL-MYERS SQUIBB COMPANY, priority 2018, dated 2024)
